{
  "source": "patent US20160377605A1",
  "about": "“LYSOSOMAL ATP SELECTIVE TWO-PHOTON ABSORBING FLUORESCENT PROBE” (POSTECH ACADEMY-INDUSTRY FOUNDATION, priority 2015, published 2016)",
  "key": {"[1]": {"assay": "Absorption characteristic of fluorescent probe with and without ATP", "assay_type": "physicochemical", "conditions": "10 μM, pH 5.5 PBS (0.1% acetonitrile)", "procedure": "Specifically, to observe the absorption characteristic of the fluorescent probe, the present inventors measured an absorbance spectrum by filling, with a pH 5.5 PBS solution (with 0.1% acetonitrile) comprising 10 μM Compound 4, a quartz fluorescence cell (114F-QS, Hellma Analytics) with a 1 cm light path, and a graph of the absorbance (y-axis) with respect to the wavelength (x-axis) is shown in FIG. 1A. In addition, another absorbance spectrum was measured by filling a quartz fluorescence cell (114F-QS, Hellma Analytics) with a 1 cm light path with a pH 5.5 PBS solution (with 0.1% acetonitrile) comprising 10 μM Compound 4 and 1 mM ATP, and a graph of the absorbance (y-axis) with respect to the wavelength (x-axis) is shown in FIG. 1B. […] On the other hand, in FIG. 1B in which ATP was detected, a new absorption was observed near 540 nm in addition to 400 nm. The absorbance spectra were obtained using the HP 8453 UV/Vis spectrophotometer."}, "[2]": {"assay": "Fluorescence ATP detection characteristic, ratiometric, in PBS solution", "procedure": "Specifically, to observe the ATP detection characteristic of Compound 4, the present inventors measured a fluorescence spectrum (the fluorescence spectrum was obtained using a Photon Technical International Fluorescence System) by filling a quartz fluorescence cell (114F-QS, Hellma Analytics) with a 1 cm light path with a pH 5.5 PBS solution (with 0.1% acetonitrile) comprising 10 μM Compound 4 and ATP (0.0-1.0 mM), and graphs of the normalized fluorescence intensity (y-axis) with respect to the wavelength (x-axis) are shown in FIG. 2A. […] In addition, to assess the feasibility of quantification by a ratiometric detection system, the correlation between the ATP concentration (x-axis) and the fluorescence ratio (the ratio between two types of fluorescence) (y-axis) was provided in FIG. 2B. As appears in FIG. 2B, the proportional relationship between the ATP concentration and the ratio between two types of fluorescence proves the feasibility of quantification by a ratiometric detection system.\nIn order to assess the correlation between the ATP detection by Compound 4 and the pH of the solution, the present inventors measured a fluorescence spectrum (the fluorescence spectrum was obtained using a Photon Technical International Fluorescence System) by filling a quartz fluorescence cell (114F-QS, Hellma Analytics) with a 1 cm light path with a PBS solution (with 0.1% acetonitrile) with a pH range of 4.0 to 8.0 comprising 10 μM Compound 4 and ATP (0.0-1.0 mM), and graphs of the fluorescence ratio (y-axis) with respect to the pH (x-axis) are shown in FIG. 3A. According to FIG. 3A, the detectability changed with pH. It was observed that ATP was detected only under acidic conditions (pH 4.8-5.8) of lysosomes, which are the only organelles maintaining acidic conditions in cells, and was not detected at near-neutral pH (pH 7.0-7.5), which corresponds to the pH of most cells. In addition, the fluorescence ratio (y-axis) that changes with respect to the ATP concentration (x-axis) is provided for the pH range of 4.5 to 5.5 in FIG. 3B."}, "[3]": {"assay": "Selectivity of ATP detection among various cations and anions (fluorescence ratio)", "conditions": "10 μM, pH 5.5 PBS, analytes at 1 mM", "procedure": "In order to examine the selectivity of Compound 4 in ATP detection, the present inventors measured a fluorescence spectrum (the fluorescence spectrum was obtained using a Photon Technical International Fluorescence System) by filling a quartz fluorescence cell (114F-QS, Hellma Analytics) with a 1 cm light path with a pH 5.5 PBS solution (with 0.1% acetonitrile) comprising Compound 4 at 10 μM and various cations and anions (ATP, ADP, AMP, cytidine triphosphate (CTP), uridine triphosphate (UTP), guanosine triphosphate (GTP), thymine triphosphate (TTP), […] (PPi), phosphoric acid (H3PO4), nitrate anions (NO3^−), phosphate anions (PO4^3−), dithionite ion (S2O4^2−), sulfate ion (SO4^2−), acetate ion, nitrite ion (NO2^−), perchlorate ions (ClO4^−), citrate ions, monohydrogen phosphate ions (HPO4^2−), cyanide ions (CN^−), nickel ions (Ni^+), silver ions (Ag^+), manganese ions (Mn^2+), palladium ions (Pd^2+), cadmium ions (Cd^2+), cobalt ions (Co^3+), iron ions (Fe^+), zinc ion (Zn^2+), copper ion (Cu^2+), potassium ion (K^+), magnesium ion (Mg^2+), calcium ions (Ca^2+), sodium ions (Na^+), lead ions (Pb^2+), and chromium ions (Cr^3+)) at 1 mM, and the fluorescence ratios (y-axis) for various analytes (x-axis) were provided in FIG. 4."}, "HeLa cells": {"tested_on": "HeLa cells", "assay": "MTT assay cytotoxicity / cell viability", "assay_type": "cell-based", "procedure": "The present inventors examine the cytotoxicity of Compound 4 (R1═R2═H), which is the fluorescent probe according to embodiments of the present invention, by treating HeLa cells (human uterine cancer cells) with the compound, and the results are provided in FIG. 5.\nTo examine the cytotoxicity of Compound 4, an MTT assay was conducted on the HeLa cells and the cell viability was assessed.\nSpecifically, the cells (100 μL/well) were prepared in a 96-well plate at the density of about 5×10^3 cells per well. The cells were treated with Compound 4 at the concentration of 10, 30, 50, or 100 μM, cultured for 1 hour, and then washed with a PBS buffer solution. 25 μL of a 5 mg/mL 3-(4,5-[…])-2,5-diphenyltetrazolium bromide (MTT) solution was put in each well. After culturing for 2 hours at 37° C., the medium was removed, formazan crystals were dissolved in dimethyl sulfoxide (DMSO), and the absorbance was measured using a plate reader. According to FIG. 5, Compound 4 was confirmed to have low cytotoxicity up to the concentration of 10 μM within 24 hours (about 8% of the cells died). In addition, even when the concentration of Compound 4 was increased to 100 μM, it was confirmed that cytotoxicity within 8 hours was low (about 20% of the cells died), which indicated the possibility of conducting experiments in the corresponding range."}, "[4]": {"tested_on": "lysosomal ATP in HeLa cells", "assay": "Lysosomal selectivity: colocalization with LysoTracker by one-photon and two-photon fluorescence microscopy", "assay_type": "cell-based, human", "procedure": "The present inventors treated HeLa cells with Compound 4 (R1═R2═H), which is a fluorescent probe, examined a fluorescence emission phenomenon through two-photon fluorescence microscopy, and assessed lysosomal selectivity by treating the cells also with LysoTracker (Life Technologies Corp.), which is a lysosome marker widely used to assess lysosomal selectivity, and then performing one-photon and two-photon fluorescence microscopy. The scale bar in FIG. 6 is 25 μm.\nEach cell was cultured in Minimum Essential Medium with Earle's Balanced Salts (MEM/EBSS) of Hyclone™ GE Healthcare Life Sciences and a Dulbecco's modified Eagle's medium (DMEM), and the culture was carried out at 37° C. […] The cells prepared as thus were observed through two-photon fluorescence microscopy to obtain fluorescence images, and the two-photon fluorescence microscopic images were obtained at a 780 nm excitation wavelength and through a laser power of 4 mW respectively in the blue channel (440-490 nm), yellow channel (550-600 nm), and red channel (650-700 nm). […]\nThe experiment was repeated with LysoTracker Deep Red (Life Technologies Corp.). HeLa cells were treated with LysoTracker, and then a fluorescence image thereof was obtained with a one-photon fluorescence microscope (TCS SP5 II, Leica, Germany). […]"}, "[5]": {"tested_on": "lysosomal ATP in rat brain tissue", "assay": "Two-photon microscopic imaging of rat brain tissue treated with fluorescent probe", "conditions": "rat brain tissue slice, 30 μM, 20 minutes, 780 nm two-photon excitation", "procedure": "The present inventors treated a rat brain tissue with Compound 4 (R1═R2═H), which is the fluorescent probe according to embodiments of the present invention and observed the changes in fluorescence through two-photon fluorescence microscopy, and the results are provided in FIG. 8. The scale bar in FIG. 8 is 80 μm.\nSpecifically, to obtain a two-photon fluorescence microscopic image of a rat tissue treated with Compound 4, an experiment was carried out under a condition of isolated from light (in a dark room) using a […] rat (5 weeks old, male, Samtako Inc.). The brain of the rat was dissected and washed with a PBS buffer solution, and then the individual organs were frozen with dry ice for 5 minutes. The frozen organs were broken with a hammer, and 50 μm-thick tissue slice samples were prepared using a cryostat machine (CM3000, Leica). […] The fluorescence was observed through two-photon fluorescence microscopy. The two-photon fluorescence microscope was configured with a 20× objective lens (HCX APO L 20×/1.00 W, Leica, Germany), and the observation was carried out using a Ti: Sapphire laser (Chameleon Ultra II, Coherent) with 6 mW laser output and at a 780 nm two-photon excitation wavelength."}},
  "data": [
    {"molecule": "CCNc1cc2c(cc1C)C1(c3cc(C)c(NCC)cc3O2)c2ccccc2C(=O)N1CCNCCNCCNC1=C2C=CC=[N+]2[B-](F)(F)n2cccc21", "note": "[Compound 4, 10-((2-((2-((2-(3′,6′-bis(ethylamino)-2′,7′-dimethyl-3-oxospiro[isoindoline-1,9′-xanthen]-2-yl)ethyl)amino)ethyl)amino)ethyl)amino)-5,5-difluoro-5H-dipyrrolo[1,2-c:2′,1′-f][1,3,2]diazaborinin-4-ium-5-uide]", "values": [
      {"measurement": "new absorption wavelength when ATP was detected", "setting": "[1]; 1 mM ATP, in addition to 400 nm", "result": "~540", "unit": "nm"},
      {"measurement": "single absorption wavelength of the fluorescent probe", "setting": "[1]; no ATP", "result": "~400", "unit": "nm"},
      {"measurement": "pH range in which ATP was detected", "setting": "[2]; 10 μM, PBS pH 4.0 to 8.0, ATP 0.0-1.0 mM, acidic conditions of lysosomes", "result": "4.8-5.8 pH"},
      {"measurement": "change of fluorescence intensity near 550 nm as ATP concentration increased", "setting": "[2]; 10 μM, pH 5.5 PBS (0.1% acetonitrile), ATP 0.0-1.0 mM", "result": "greatly increased"},
      {"measurement": "ATP detection at near-neutral pH", "setting": "[2]; pH 7.0-7.5, 10 μM, ATP 0.0-1.0 mM", "result": "not detected"},
      {"measurement": "selectivity in ATP detection among various cations and anions", "setting": "[3]", "result": "highly selective to ATP"},
      {"measurement": "cytotoxicity, cells died", "setting": "HeLa cells; 100 μM, within 8 hours", "result": "about 20%"},
      {"measurement": "cytotoxicity, cells died", "setting": "HeLa cells; up to 10 μM, within 24 hours", "result": "about 8%"},
      {"measurement": "lysosomal selectivity", "setting": "[4]", "result": "highly selective to lysosomes"},
      {"measurement": "colocalization factor with LysoTracker", "setting": "[4]; 10 μM Compound 4 and 50 nM LysoTracker, 1 hour", "result": "about 0.95"},
      {"measurement": "detection of lysosomal ATP in deep tissue", "setting": "[5]", "result": "selectively detected lysosomal ATP"}
    ]}
  ]
}
